Experiments:
[1] = tested on: 5-hydroxytryptamine induce bronchoconstriction; experiment: Inhibition of 5-hydroxytryptamine induced bronchoconstriction in the anaesthetised, artificially respired guinea-pig (Konzett-Rossler preparation); assay type: in vivo; conditions: Cavia porcellus, iv
Source text: (a) The Compounds were examined for their ability to inhibit 5-hydroxytryptamine induce bronchoconstriction in the anaesthetised, artificially respired guinea-pig (Konzett-Rossler preparation).

[2] = tested on: bronchoconstriction induced by an histamine aerosol; experiment: Protection of conscious guinea-pigs against histamine aerosol induced bronchoconstriction (Herxheimer test); assay type: in vivo; conditions: 10 gg/ml by aerosol
Description: (b) The Compounds were also examined for their ability to protect conscious guinea-pigs against bronchoconstriction induced by an histamine aerosol (Herxheimer test). The Compounds were administered by aerosol.
The aerosol was produced in the following manner.
Water soluble compounds were dissolved in normal saline at a concentration of 1 mg/ml. Water insoluble compounds were dissolved in ethanol at a concentration of 10 mg/ml. These solutions were then diluted to the test concentrations with normal saline.

For CCCCCCC(C)(O)CCN1C(=O)N(CC#N)C(=O)C1CC=CCCCC(=O)OCC (stereo not drawn) [Compound 2, 1-(3'-hydroxy-3'-methyl-n-nonyl)-3-cyanomethyl-5-(6"-ethoxycarbonyl-n-hex-2"-enyl) hydantoin], the ED50 [1] was 1.1 µg/kg, the “increase in pre-convulsive coughing time” value ([2]; 2 minutes after dosing) was 178% and the “increase in pre-convulsive coughing time” value ([2]; after 10 minutes) was 39%.

Reference: patent EP0006352A1, “Hydantoins and thiohydantoins, process for their preparation and pharmaceutical compositions containing them” (BEECHAM GROUP PLC, priority 1978, dated 1980)
